Measurements: patent publication US20120196899A1, “METHODS AND PRODUCTS FOR TREATING INFLAMMATION” (Rock Creek Pharmaceuticals, Inc., priority 2010, published 2012)
Values joined by “and” are separate entries in the source; they are usually repeats but may differ in a detail not shown here. Equal entries are not always repeated. Where two headings read alike, the source gives them in different places.

What was measured:
[1] = target: T1, nAChR α7 (Homo sapiens, UniProt P36544); assay: nAChR α7 channel agonist assay (FLIPR, with PNU-120596); type: cell-based; settings: for Normalized % Activation: in presence of PNU-120596, 30 μM Ach + 10 μM PNU-120596 = 100%, HBPS = 0%
T1 construct: host or cells: CHO cells
Method: Therefore, the assay of agonist activity for either Ach or for the test articles was conducted in the presence of the positive allosteric modulator.

[2] = target: T2, nAChR α3/β4 (Homo sapiens, UniProt P30926+P32297); assay: nAChR α3/β4 channel agonist assay (FLIPR, Fluo-8 calcium); settings: 30 μM Ach = 100%, HBPS = 0%
Method: (§2) The following three (3) channels were evaluated: • 1. nAChR α3/β4 (encoded by the human CHRNA3 and CHRNB4 gene and stably expressed in CHO cells); • 2. nAChR α4/β2 (CHRNA4 and CHRNB2 gene and transiently expressed in HEK293 cells); and • 3. nAChR α7 (encoded by the human nicotinic α7 gene coexpressed in CHO cells with the chaperone RIC-3 encoded by the human RIC3 gene).
(§3) The ability of each test article to act as an agonist, a positive allosteric modulator or antagonist of three nAChR receptor channels was evaluated in the presence of 0.1 atropine. Both test articles were evaluated for responses on each nAChR channel at eight (8) concentrations: 0.3, 1, 3, 10, 30, 100, 300, and 1000 μM (n=4 for each concentration).
(§4) HEK293 or CHO cells were transiently or stably transfected with the appropriate human ion channel cDNAs. Stable transfectants were selected by coexpression with the antibiotic-resistance gene(s) incorporated into the expression plasmid(s). Selection pressure was maintained by including selection antibiotics in the culture medium. HEK293 cells were cultured in Dulbecco's Modified Eagle Medium/Nutrient Mixture F-12 (D-MEM/F-12) supplemented with 10% fetal bovine serum, 100 U/mL penicillin G sodium, 100 g/mL streptomycin sulfate and appropriate selection antibiotics. CHO cells were cultured in Ham's F-12 supplemented with 10% fetal bovine serum, 100 U/mL penicillin G sodium, 100 g/mL streptomycin sulfate and appropriate selection antibiotics.
(§5) For FLIPR TETRA™ assay, cells were plated in 384-well black wall, flat clear bottom microtiter plates (Type: BD Biocoat Poly-D-Lysine Multiwell Cell Culture Plate) at 20,000 to 30,000 cells per well (384-well plate). Cells were incubated at 37° C. overnight or until the cells reached a sufficient density in the wells (near confluent monolayer) to use in fluorescence assays. For α4β2 assay, cells were incubated at 27° C. for at least 7 hours before use.
(§6) Experiments were performed with either the FLIPR calcium sensitive dye kit (Fluo-8, ABDbioquest, for nAChR α3/β4 and nAChR α7) or FLIPR membrane potential kit (Molecular Devices, for nAChR α4/β2) according to the manufacturer's instructions. Briefly, cells were incubated with 201 dye for 30 min at 37° C. After dye loading period, for the agonist assay, 5 μl of the test, vehicle, or control articles at concentration of 5 times of final concentration were applied to the cells without stimulation. For the positive allosteric modulation (PAM) and antagonist assay, after test article application, the cells were stimulated with either low dose (for PAM) or high dose (for antagonist) of Ach.
(§7) Concentration-response data was fitted to a Hill equation of the following form:
(§8) where Base is the response at low concentrations of test article, Max is the maximum response at high concentrations, xhalf is the EC50 or IC50, the concentration of test article producing either half-maximal activation or inhibition, and rate is the Hill coefficient. Nonlinear least squares fits were made assuming a simple one-to-one binding model.
The ability of both test articles to act as an agonist of nAChR carried out in the absence of the positive control agonist. The signal elicited in the presence of the positive control agonist, 30 μM acetylcholine (Ach) was set to 100% and the signal from the vehicle control, HEPES-buffered physiological saline (HBPS) solution was set to 0%.

[3] = target: T2, nAChR α3/β4; settings: for Normalized % Potentiation: with 10 μM Ach (= 0%), 10 μM Ach + 1 μM epibatidine = 100%
Method: as §4, §5, §6
The signal elicited in the presence of the positive control agonist and allosteric modulator (10 μM Ach+1 μM epibatidine) was set to 100% and the signal from the agonist control (10 μM Ach) was set to 0%.

[4] = target: T3, nAChR α4/β2 (Homo sapiens, UniProt P17787+P43681); assay: nAChR α4/β2 channel agonist assay (FLIPR membrane potential); type: cell-based; settings: 30 μM Ach = 100%, HBPS = 0%
T3 construct: host or cells: HEK293 cells, transient transfection
Method: as §2, §3, §4, §5, §6, §7, §8
The ability of each test article to act as an agonist of the nAChR carried out in the absence of the positive control agonist. The signal elicited in the presence of the positive control agonist (30 μM Ach) was set to 100% and the signal from the vehicle control (HBPS) was set to 0%. Values were considered significant (bold font) if the test article mean was three or more standard deviations above from the vehicle control mean.

[5] = Coagulation parameters (aPTT, PT), day 15; type: in vivo, Sprague-Dawley rats; settings: for ACTIVATED PARTIAL THROMBOPLASTIN TIME: 0.75 mg/kg, group mean; for ACTIVE PARTIAL THROMBOPLASTIN TIME: nicotine 0.75 mg/kg, individual animals, tartrate
Excerpt: (§1) On day 15, urine was collected on all surviving animals for urinalysis. The animals were euthanized and bled via cardiac puncture. Blood was collected for hematology, clinical chemistry, and coagulation analysis. Tissues were collected, weighed, and stored in 10% neutral-buffered formalin for possible future analysis.
Individual values for the coagulation parameters activated partial thromboplastin (aPTT) and prothrombin times (PT) for each animal are listed in Table 34 (normal ranges, Table 30). These are summarized in terms of descriptive statistics in Table 25.

[6] = target: T3, nAChR α4/β2; type: cell-based; settings: 100 μM Ach + 0.3 μM epibatidine; not concentration-dependent, IC50 not determinable
Method: as §2, §3
HEK293 or CHO cells were transiently or stably transfected with the appropriate human ion channel cDNAs. Stable transfectants were selected by coexpression with the antibiotic-resistance gene(s) incorporated into the expression plasmid(s). […]
For FLIPR TETRA™ assay, cells were plated in 384-well black wall, flat clear bottom microtiter plates (Type: BD Biocoat Poly-D-Lysine Multiwell Cell Culture Plate) at 20,000 to 30,000 cells per well (384-well plate). Cells were incubated at 37° C. overnight or until the cells reached a sufficient density in the wells (near confluent monolayer) to use in fluorescence assays. […]

[7] = Physical signs after single i.v. dose (Example 3); type: in vivo, Sprague-Dawley rats; settings: nicotine 0.4 mg/kg single i.v.; all males and two females
Method: Four aliquots of each dose level formulation were collected and stored at −80° C. The test compound, corresponding dose level, number of animals, and sample collection times for Phase I of the study are shown in Table 3. The test compound, corresponding dose level, number of animals, and sample collection times for Phase II of the study are shown in Table 4. The physical signs of each animal were monitored following administration of the test compound.

[8] = Necropsy observations and organ weights, day 15; type: in vivo, Sprague-Dawley rats
Method: Body weight and food consumption was measured daily for 14 days. On day 15, urine was collected on all surviving animals. The animals were euthanized and bled via cardiac puncture, and blood was collected for analysis. Tissues were collected, weighed, evaluated for gross abnormalities, and stored in 10% neutral-buffered formalin.
as §1

[9] = tested on: TNFα-induced NFκB activity; assay: NFκB luciferase assay (inhibition of TNFα-induced NFκB activity) in HEK293 reporter cells; type: cell-based, Human; settings: HEK293 reporter cells challenged with TNFα for three hours
Method: The smokeless tobacco used in these experiments was plain long-leaf Copenhagen tobacco purchased from a local vendor. Crude extract was extracted with methanol and water and clarified by centrifugation and filtration. The alkaloid extract was prepared from sodium hydroxide and methanol extraction, organic phase separation and purification. All treatment samples were prepared as a function of weight (μg/ml), and all samples were diluted in DMSO.
Human […] kidney cells (HEK293) transfected with an NFκB luciferase reporter were challenged with TNFα for three hours, then samples were applied to the challenged cells.

[10] = Group E, 0.75 mg/kg, females, individual animals, tartrate, 0.75 mg/kg
[11] = Group E, 0.75 mg/kg, males, individual animals, tartrate, 0.75 mg/kg
[12] = female animals, 0.75 mg/kg, group mean
[13] = nicotine 0.75 mg/kg single i.v., male rats

T3 sequence (P17787 26-502): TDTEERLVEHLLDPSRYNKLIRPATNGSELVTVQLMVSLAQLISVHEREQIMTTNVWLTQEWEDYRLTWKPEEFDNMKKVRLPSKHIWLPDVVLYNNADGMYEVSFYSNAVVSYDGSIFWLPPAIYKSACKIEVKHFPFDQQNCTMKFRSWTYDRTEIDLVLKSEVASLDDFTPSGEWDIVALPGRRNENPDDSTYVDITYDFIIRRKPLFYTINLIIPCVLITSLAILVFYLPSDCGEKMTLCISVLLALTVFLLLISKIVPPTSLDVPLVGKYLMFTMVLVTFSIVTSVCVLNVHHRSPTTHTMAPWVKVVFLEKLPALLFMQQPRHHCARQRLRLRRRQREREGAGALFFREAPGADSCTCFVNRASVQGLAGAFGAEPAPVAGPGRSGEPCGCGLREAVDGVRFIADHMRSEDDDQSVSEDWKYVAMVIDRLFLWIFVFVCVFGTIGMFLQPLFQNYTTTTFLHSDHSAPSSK
T3 sequence (P43681 29-627): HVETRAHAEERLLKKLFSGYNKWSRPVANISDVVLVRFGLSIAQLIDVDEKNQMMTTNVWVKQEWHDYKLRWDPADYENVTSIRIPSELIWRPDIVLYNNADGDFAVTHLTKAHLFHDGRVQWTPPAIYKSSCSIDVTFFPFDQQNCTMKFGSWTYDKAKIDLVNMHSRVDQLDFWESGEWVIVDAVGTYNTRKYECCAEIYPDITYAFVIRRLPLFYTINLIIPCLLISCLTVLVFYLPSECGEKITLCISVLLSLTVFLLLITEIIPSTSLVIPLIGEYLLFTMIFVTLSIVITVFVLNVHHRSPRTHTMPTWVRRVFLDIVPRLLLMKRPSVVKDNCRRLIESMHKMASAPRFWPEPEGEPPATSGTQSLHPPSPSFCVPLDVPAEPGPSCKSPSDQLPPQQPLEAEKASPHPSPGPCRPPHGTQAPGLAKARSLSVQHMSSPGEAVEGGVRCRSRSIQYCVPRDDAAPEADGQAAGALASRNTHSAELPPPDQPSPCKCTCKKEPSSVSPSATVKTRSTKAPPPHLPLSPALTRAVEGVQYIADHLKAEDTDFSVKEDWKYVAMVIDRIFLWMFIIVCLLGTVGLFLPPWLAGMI
T1 sequence (P36544 23-502): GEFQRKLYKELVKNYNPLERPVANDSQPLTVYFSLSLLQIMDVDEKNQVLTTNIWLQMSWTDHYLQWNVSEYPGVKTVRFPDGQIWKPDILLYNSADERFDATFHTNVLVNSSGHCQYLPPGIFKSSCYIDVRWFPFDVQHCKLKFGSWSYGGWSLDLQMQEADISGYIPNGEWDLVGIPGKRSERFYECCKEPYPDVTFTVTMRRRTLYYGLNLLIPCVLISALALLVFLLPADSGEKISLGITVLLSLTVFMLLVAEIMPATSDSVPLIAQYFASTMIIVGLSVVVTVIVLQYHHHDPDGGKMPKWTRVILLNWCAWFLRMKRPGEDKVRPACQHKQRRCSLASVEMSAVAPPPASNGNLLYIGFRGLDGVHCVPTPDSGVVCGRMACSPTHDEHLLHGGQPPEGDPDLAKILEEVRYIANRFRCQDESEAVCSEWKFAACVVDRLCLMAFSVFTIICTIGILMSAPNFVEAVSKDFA
T2 sequence (P32297 32-505): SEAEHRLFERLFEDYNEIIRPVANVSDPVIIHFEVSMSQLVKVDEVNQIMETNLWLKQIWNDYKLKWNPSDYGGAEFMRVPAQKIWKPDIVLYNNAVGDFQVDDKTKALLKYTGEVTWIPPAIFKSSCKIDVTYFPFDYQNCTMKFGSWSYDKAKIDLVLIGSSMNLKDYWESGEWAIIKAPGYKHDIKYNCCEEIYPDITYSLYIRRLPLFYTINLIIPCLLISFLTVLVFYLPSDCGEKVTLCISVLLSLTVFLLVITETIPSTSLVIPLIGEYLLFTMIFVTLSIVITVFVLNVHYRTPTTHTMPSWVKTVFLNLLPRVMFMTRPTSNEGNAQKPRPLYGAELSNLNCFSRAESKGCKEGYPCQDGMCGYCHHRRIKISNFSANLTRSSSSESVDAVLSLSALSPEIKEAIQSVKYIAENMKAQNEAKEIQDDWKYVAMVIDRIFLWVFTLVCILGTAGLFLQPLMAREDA
T2 sequence (P30926 22-498): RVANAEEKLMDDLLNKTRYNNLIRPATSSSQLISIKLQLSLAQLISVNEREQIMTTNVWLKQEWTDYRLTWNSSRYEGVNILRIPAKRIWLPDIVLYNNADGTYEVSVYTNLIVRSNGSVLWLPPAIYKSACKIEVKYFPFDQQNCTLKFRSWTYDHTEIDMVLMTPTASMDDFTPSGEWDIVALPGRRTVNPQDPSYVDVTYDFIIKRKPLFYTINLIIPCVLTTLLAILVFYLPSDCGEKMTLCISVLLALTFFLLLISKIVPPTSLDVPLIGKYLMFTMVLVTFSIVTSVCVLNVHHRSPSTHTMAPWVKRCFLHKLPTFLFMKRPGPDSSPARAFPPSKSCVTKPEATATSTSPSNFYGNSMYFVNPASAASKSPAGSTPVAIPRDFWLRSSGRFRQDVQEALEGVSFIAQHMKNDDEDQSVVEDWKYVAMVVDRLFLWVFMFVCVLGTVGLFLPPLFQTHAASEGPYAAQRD

## C1=CCC(c2cccnc2)NC1 (racemic) [Anatabine (racemate)]
[1]; test conc 0.3 μM
  Normalized % Activation: −1.81%
[1]; test conc 1 μM
  Normalized % Activation: 0.34%
[1]; test conc 3 μM
  Normalized % Activation: 0.78%
[1]; test conc 10 μM
  Normalized % Activation: 1.65%
[1]; test conc 30 μM
  Normalized % Activation: 2.27%
[1]; test conc 100 μM
  Normalized % Activation: 5.69%
[1]; test conc 300 μM
  Normalized % Activation: 14.45%
[1]; test conc 1000 μM
  Normalized % Activation: 60.41%
[2]; test conc 0.3 μM
  Normalized % Activation: 1.32%
[2]; test conc 1 μM
  Normalized % Activation: −0.01%
[2]; test conc 3 μM
  Normalized % Activation: −1.53%
[2]; test conc 10 μM
  Normalized % Activation: −2.73%
[2]; test conc 30 μM
  Normalized % Activation: 4.93%
[2]; test conc 100 μM
  Normalized % Activation: 10.44%
[2]; test conc 300 μM
  Normalized % Activation: 16.97%
[3]; test conc 0.3 μM
  Normalized % Potentiation: −1.98%
[3]; test conc 1 μM
  Normalized % Potentiation: −4.08%
[3]; test conc 3 μM
  Normalized % Potentiation: −2.88%
[3]; test conc 10 μM
  Normalized % Potentiation: −3.20%
[3]; test conc 30 μM
  Normalized % Potentiation: −8.50%
[3]; test conc 100 μM
  Normalized % Potentiation: −9.46%
[3]; test conc 300 μM
  Normalized % Potentiation: −9.38%
[3]; test conc 1000 μM
  Normalized % Potentiation: −9.17%
[4]; test conc 0.3 μM
  Normalized % Activation: 0.28%
[4]; test conc 1 μM
  Normalized % Activation: 5.36%
[4]; test conc 3 μM
  Normalized % Activation: 10.41%
[4]; test conc 10 μM
  Normalized % Activation: 12.65%
[4]; test conc 30 μM
  Normalized % Activation: 9.07%
[4]; test conc 100 μM
  Normalized % Activation: 16.96%
[4]; test conc 300 μM
  Normalized % Activation: 50.60%
[4]; test conc 1000 μM
  Normalized % Activation: 85.29%

## CN1CCCC1c1cccnc1.O=C(O)C(O)C(O)C(=O)O (single isomer, unassigned; (-)) [Nicotine, (−) Nicotine hydrogen tartrate, reference compound]
[5]; female
  ACTIVATED PARTIAL THROMBOPLASTIN TIME: 16.9 s
[5]; male
  ACTIVATED PARTIAL THROMBOPLASTIN TIME: 16.3 s
[5]; nicotine 0.75 mg/kg single i.v., male and female, day 15
  aPTT versus vehicle control: aPTT was significantly lower relative to the vehicle control group
[5]; female rats
  ACTIVE PARTIAL THROMBOPLASTIN TIME: 18.7 s and 15 s
[5]; male rats
  ACTIVE PARTIAL THROMBOPLASTIN TIME: 15 s and 16.3 s and 17.6 s and 16.2 s
[1]; with 10 μM PNU-120596, maximal stimulation not achieved
  agonist activity: showed agonist activity
[6]
  inhibition of receptor activity: inhibited receptor activity
[7]
  physical signs: experienced tremors immediately post dose
[8]; [10]
  Tissue Collection Weights: Brain: 1.77 g and 1.93 g and 1.87 g
  Tissue Collection Weights: Heart: 1.09 g and 1.06 g and 0.83 g
  Tissue Collection Weights: Kidneys: 2.34 g and 2.29 g (2×)
  Tissue Collection Weights: Liver: 9.48 g and 10.11 g and 9.18 g
  Tissue Collection Weights: Lungs: 1.20 g and 1.48 g and 1.28 g
  Tissue Collection Weights: Ovaries/uterus: 1.59 g and 0.92 g and 1.32 g
  Tissue Collection Weights: Small intestine: 0.41 g and 0.40 g and 0.28 g
  Tissue Collection Weights: Spleen: 0.46 g (2×) and 0.76 g
  Tissue Collection Weights: Thymus: 0.54 g and 0.48 g (2×)
[8]; [11]
  Tissue Collection Weights: Brain: 2.06 g and 1.90 g and 1.84 g and 1.94 g
  Tissue Collection Weights: Heart: 1.20 g and 1.17 g and 1.21 g and 1.42 g
  Tissue Collection Weights: Kidneys: 3.19 g and 3.04 g and 2.87 g and 3.01 g
  Tissue Collection Weights: Liver: 11.97 g and 12.52 g and 12.06 g
  Tissue Collection Weights: Lungs: 1.84 g and 1.49 g and 1.62 g and 1.66 g
  Tissue Collection Weights: Prostate: 0.41 g and 0.28 g (2×) and 0.45 g
  Tissue Collection Weights: Small intestine: 0.71 g and 0.56 g and 0.53 g and 0.40 g
  Tissue Collection Weights: Spleen: 0.81 g and 0.62 g and 0.78 g and 0.86 g
  Tissue Collection Weights: Testes: 3.05 g and 3.13 g and 3.02 g and 2.92 g
  Tissue Collection Weights: Thymus: 0.54 g and 0.46 g and 0.56 g and 0.76 g
[8]; [12]
  Organ Weight Brain: 1.86 g
  Organ Weight Heart: 0.99 g
  Organ Weight Kidneys: 2.31 g
  Organ Weight Liver: 9.59 g
  Organ Weight Lungs: 1.32 g
  Organ Weight Ovaries/uterus: 1.28 g
  Organ Weight Small intestine: 0.36 g
  Organ Weight Spleen: 0.56 g
  Organ Weight Thymus: 0.50 g
[8]; [13]
  Organ Weight Brain, Mean: 1.94 g
  Organ Weight Heart, Mean: 1.25 g
  Organ Weight Kidneys, Mean: 3.03 g
  Organ Weight Liver, Mean: 12.69 g
  Organ Weight Lungs, Mean: 1.65 g
  Organ Weight Prostate, Mean: 0.36 g
  Organ Weight Small intestine, Mean: 0.55 g
  Organ Weight Spleen, Mean: 0.77 g
  Organ Weight Testes, Mean: 3.03 g
  Organ Weight Thymus, Mean: 0.58 g
[3]
  potentiation: Neither nicotine nor anatabine potentiated the activity
[9]
  TNFα-induced NFκB-mediated transcription of luciferase: reduce TNFα-induced NFκB-mediated transcription
